Laboratory results as given in patent US20250115582A1, “MOLECULAR GLUE DEGRADERS AND METHODS OF USING THE SAME” (Monte Rosa Therapeutics, Inc., priority 2022, published 2025).

Legend:
CK1α = target: T1, CK1α (Homo sapiens, UniProt P48729+Q96SW2); experiment: CK1α NanoBiT assay (HiBiT-tagged CSNK1A1 in HEK293 clonal line); format: cell-based; conditions: HEK293 HiBiT-CSNK1A1/LgBiT cells, 24 h incubation, luminescence
T1 construct: HEK293 clonal line with CRISPR KI HiBiT tag on CSNK1A1; host or cells: HEK293 clonal line, CRISPR HiBiT knock-in at CSNK1A1, stably expressing LgBiT
Method: HEK293 clonal line with CRISPR KI HiBiT tag on CSNK1A1 and stably expressing LgBiT protein was obtained from Promega (Madison, WI). Cells were plated at 5000 cells per well using Multiflo (BioTek) in 384-well white solid bottom plates (Corning, 3570BC) in […] volume in DMEM media (DMEM, high glucose, HEPES, no phenol red (ThermoFisher Scientific, 21063029)) containing 10% FBS (Corning, 35-075-CV), 1% Penicillin/Streptomycin ((ThermoFisher Scientific, 15140-122), and 0.2% Endurazine (Nano-Glo Endurazine Live Cell Substrate (Promega, N2571)). Cells were incubated for 16 hours at 37C, 5% CO2. Depending on experiment 25 or 75 nL of a compound at 10 mM were added into the plate using an Echo®650 liquid handler (Labcyte) to achieve final concentration of […] in wells. Cells were incubated at 37° C., 5% CO2 for 24 hours followed by signal was read on Pherastar FSX using “LUM plus” optic module.
Data analysis was performed using Scinamic (Scinamic, Cambridge, MA).
Luminescence response (R) was calculated by the formula: response=100*(S−N)/(P−N), where S is the signal of the well, N and P the mean negative and positive control values, respectively, of the same plate. The luminescence response was then fitted in Scinamic using a 3-parameter agonist logistic fit (hillslope=1, EC50>0, top/bottom unconstrained).
DC50 data are reported in Table 2 for compounds in Table 1. In Table 2 below, According to the code, A represents a DC50 value of ≤0.1 μM, B represents a DC50 value>0.1 μM and ≤1 μM, C represents an DC50 value>1 μM.

CRBN/DDB1 = CRBN/DDB1 (Homo sapiens, UniProt Q96SW2); experiment: HTRF binding assay (thalidomide probe displacement from CRBN/DDB1); conditions: CRBN/DDB1 2.5 nM, Cy5-Thalidomide 100 nM, 30 min; geometric mean; read-out: HTRF_Thali_Disp_DR—geo_IC50
Description: Binding of test compounds to CRBN/DDB1 was monitored in an HTRF assay using 1-[5-({2-[2-(2-{[2-(2,6-dioxopiperidin-3-yl)-1,3-dioxo-2,3-dihydro-1H-isoindol-4-yl]oxy}acetamido)ethoxy]ethyl}carbamoyl)pentyl]-3,3-dimethyl-2-[(1E,3E)-5-[(2E)-1,3,3-trimethyl-5-sulfo-2,3-dihydro-1H-indol-2-ylidene]penta-1,3-dien-1-yl]-3H-indol-1-ium-5-sulfonate as a fluorescent probe. In this assay, compounds displace the fluorescently labeled thalidomide-based probe bound to CRBN and fluorescence is monitored with increasing compound concentration. Assays were conducted in Greiner white 384 well HiBase plates (Cat. No 784075-25) in 10 μL total volume. A one pot detection solution of CRBN/DDB1 (2.5 nM), anti-His Terbium Cryptate Gold (1×, PerkinElmer Cat. #: 61HI2TLB), and Cy5-Thalidomide (100 nM, Tenova Cat.: T52461) was prepared in 20 mM HEPES, 20 mM NaCl, 0.2 mM TCEP, 0.2 mM EDTA, and 0.005% Tween20 was dispensed to each assay plate. Test compounds were stored in dry, ambient temperatures at 10 mM. A 10-point, 1:3 dilution series was prepared from 10 mM stock concentrations in Echo-compatible LDV plates. 10 nL of each compound dilution series was dispensed into assays wells using an Echo 650 (Labcyte inc. USA). 10 nL of 10 mM lenalidomide (Selleckchem Cat no. S1029) was transferred into the active-control wells for the assay and 10 nL of DMSO was transferred into the negative control wells. The assay was then allowed to incubate for 30 min at ambient temperature after transferring the test compounds. Plate measurements were taken on a Pherastar FSX (BMG Labtech, Germany) using the HTRF Red filter (Ex. 337 nm, eml: 620 nm, em2: 665 nm) (Flashes: 50, Integration time: 60-400 μs, Z-height: 10 mm, Ratio-multiplier: 10,000). Analysis, HTRF ratio and IC50 values were derived using KNIME analytics (KNIME Zurich) transformation and fitting within Collaborative Drug Discovery (Collaborative Drug Discovery USA) using a 4-parameter logistic fit. HTRF ratio calculation was performed using the following formula: […]
where em665nm represents the measured emission at 665 nm upon excitation at 337 nm and em620nm the measured emission at 620 nm upon excitation at 337 nm. The 4 parameter logistic fitting model was performed using the following formula: […]
where Y represents the HTRF ratio response (as defined previously), X the compound concentration in μM, Ymin the minimum response plateau, Ymax the maximum response plateau, IC50 the concentration of agonist that gives a response half way between Ymin and Ymax and HillSlope the steepness of the family of curves. No fitting model constraints was applied on Ymin, or Ymax whilst IC50>0 and −0.5>HillSlope>−3
Ki values were derived from the geometric mean of the IC50 values using the Cheng-Prusoff transformation:
where [L] represents the concentration of fluorescent probe in μM, Kd the affinity (binding constant) of the fluorescent probe in units of μM and IC50 the concentration of agonist that gives a response halfway between Ymin and Ymax (as described in 1.2.1)
Analysis and IC50 values were derived using KNIME analytics (KNIME, Zurich) transformation and fitting within Collaborative Drug Discovery (Collaborative Drug Discovery, USA) as described in 1.2.1. Ki values were derived from the geometric mean of the IC50 values using the Cheng-Prusoff transformation as described in 2.2.2. Data was visualized in GraphPad Prism 8.1.2 (GraphPad, USA) and reported as mean and standard deviation. Microsoft Office Excel 2012 (Redmond, WA) was used for calculation of mean and standard deviation.
IC50 data are reported in Table 3 for compounds in Table 1. In Table 3 below, According to the code, A represents a IC50 value of ≤0.1 μM, B represents a IC50 value≥0.1 μM and ≤1 μM, C represents an IC50 value>1 μM.

SKCO1 = experiment: GI50 growth inhibition, CyQUANT, SKCO1; format: cell-based; conditions: Homo sapiens, SK-CO-1, SKCO1 cells, 120 to 168 hours
Method: (§1) SKCO1, LS180, and LS174T cell lines were purchased from ATCC. CW2 cell line was purchased from Riken. GP2D cell line was purchased from Sigma/ECACC. All cell lines were cultured in manufacturer's recommended media at 37° C., 5% CO2. Briefly, cells were suspended in 200 μL of media and seeded at 300 to 1,800 cells per well in tissue culture treated 96-well plates with black walls and clear bottom. Plates were incubated overnight and initial (T0) read was performed the following day using CyQUANT Direct Cell Proliferation Assay Kit (Thermo Fisher Scientific) according to manufacturer's protocol. All compounds were solubilized in DMSO and prepared at 3-fold serial dilution, using 9 points starting at 30 μM as highest concentration, administered to cells and incubated for 120 to 168 hours, at which point CyQUANT assay measurement was performed using Acumen Cellista instrument (Ex/Em 480/520 nm). Media-only wells were used as blank, and 0.3% DMSO was used as DMSO-treated cell control. Growth inhibition (percent response) was calculated using the following formula in Excel: “=if ([Compound treated Day N]>[Untreated Day 0, AVG], ([Compound treated Day N]−[Untreated Day 0, AVG])/([Untreated Day N]−[Untreated Day 0, AVG])*100, ([Compound Treated Day N]−[Untreated Day 0, AVG])/([Untreated Day 0, AVG])*100)”. GI50 is the response corresponding to the 50% of untreated control.
(§2) GI50 data are reported in Tables 4a, 4b, 4c, 4d, and 4e for compounds in Table 1. In Tables 4a, 4b, 4c, 4d, and 4e below, According to the code, A represents a GI50 value of ≤0.1 μM, B represents a GI50 value>0.1 μM and ≤1 μM, C represents an GI50 value>1 μM.

CW2 = experiment: GI50 growth inhibition, CyQUANT, CW2; format: cell-based; conditions: Homo sapiens, CW-2, CW2 cells, 120 to 168 hours
Method: as §1, §2

GP2D = experiment: GI50 growth inhibition, CyQUANT, GP2D; format: cell-based; conditions: GP2D cells, 120 to 168 hours
Method: as §1, §2

LS180 = experiment: GI50 growth inhibition, CyQUANT, LS180; format: cell-based; conditions: Homo sapiens, LS180 cells, 120 to 168 hours
Method: as §1, §2

LS174T = experiment: GI50 growth inhibition, CyQUANT, LS174T; format: cell-based; conditions: Homo sapiens, LS174T cells, 120 to 168 hours
Method: as §1, §2

Chain of CRBN/DDB1 (Q96SW2 whole entry): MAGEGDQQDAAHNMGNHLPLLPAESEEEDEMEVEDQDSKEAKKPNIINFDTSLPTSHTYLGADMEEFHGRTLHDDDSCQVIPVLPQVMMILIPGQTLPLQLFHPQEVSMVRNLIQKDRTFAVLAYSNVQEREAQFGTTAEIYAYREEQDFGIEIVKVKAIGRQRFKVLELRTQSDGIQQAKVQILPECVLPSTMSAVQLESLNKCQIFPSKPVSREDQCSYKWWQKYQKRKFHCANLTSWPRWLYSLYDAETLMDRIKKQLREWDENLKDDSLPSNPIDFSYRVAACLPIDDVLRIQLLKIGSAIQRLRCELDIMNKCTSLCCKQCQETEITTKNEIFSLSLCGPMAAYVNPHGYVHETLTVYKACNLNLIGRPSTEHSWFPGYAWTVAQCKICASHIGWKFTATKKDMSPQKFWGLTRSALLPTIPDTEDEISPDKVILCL
Chain of CRBN/DDB1 (Q16531 whole entry partner): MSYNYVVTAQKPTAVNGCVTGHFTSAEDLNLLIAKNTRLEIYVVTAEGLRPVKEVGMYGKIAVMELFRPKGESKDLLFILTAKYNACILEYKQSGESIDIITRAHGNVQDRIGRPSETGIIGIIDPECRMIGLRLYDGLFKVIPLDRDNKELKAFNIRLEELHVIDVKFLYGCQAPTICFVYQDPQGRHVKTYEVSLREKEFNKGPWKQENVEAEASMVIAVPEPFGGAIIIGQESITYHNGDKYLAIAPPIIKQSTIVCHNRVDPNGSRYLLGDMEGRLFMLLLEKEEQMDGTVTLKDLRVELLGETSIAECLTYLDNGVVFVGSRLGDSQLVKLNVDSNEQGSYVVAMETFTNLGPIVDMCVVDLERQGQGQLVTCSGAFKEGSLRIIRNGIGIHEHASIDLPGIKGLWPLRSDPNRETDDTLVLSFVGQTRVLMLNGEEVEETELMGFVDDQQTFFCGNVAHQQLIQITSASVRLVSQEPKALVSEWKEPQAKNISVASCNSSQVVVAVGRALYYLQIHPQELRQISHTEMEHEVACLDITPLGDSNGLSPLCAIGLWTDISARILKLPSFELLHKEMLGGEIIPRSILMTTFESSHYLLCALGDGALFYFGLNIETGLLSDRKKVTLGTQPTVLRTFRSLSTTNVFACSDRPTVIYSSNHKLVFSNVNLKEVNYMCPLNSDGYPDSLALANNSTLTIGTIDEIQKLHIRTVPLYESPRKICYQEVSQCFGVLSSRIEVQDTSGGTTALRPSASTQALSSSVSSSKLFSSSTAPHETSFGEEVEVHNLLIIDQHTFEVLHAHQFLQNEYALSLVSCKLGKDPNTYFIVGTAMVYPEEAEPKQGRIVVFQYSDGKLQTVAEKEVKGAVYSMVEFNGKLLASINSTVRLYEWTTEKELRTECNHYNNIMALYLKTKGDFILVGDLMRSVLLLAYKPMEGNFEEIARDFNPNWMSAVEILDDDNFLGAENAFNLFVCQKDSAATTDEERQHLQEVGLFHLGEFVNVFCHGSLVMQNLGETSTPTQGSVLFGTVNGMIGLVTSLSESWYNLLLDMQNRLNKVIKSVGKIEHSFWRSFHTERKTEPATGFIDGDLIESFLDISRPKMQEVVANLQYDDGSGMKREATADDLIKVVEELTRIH
T1 sequence (P48729 whole entry): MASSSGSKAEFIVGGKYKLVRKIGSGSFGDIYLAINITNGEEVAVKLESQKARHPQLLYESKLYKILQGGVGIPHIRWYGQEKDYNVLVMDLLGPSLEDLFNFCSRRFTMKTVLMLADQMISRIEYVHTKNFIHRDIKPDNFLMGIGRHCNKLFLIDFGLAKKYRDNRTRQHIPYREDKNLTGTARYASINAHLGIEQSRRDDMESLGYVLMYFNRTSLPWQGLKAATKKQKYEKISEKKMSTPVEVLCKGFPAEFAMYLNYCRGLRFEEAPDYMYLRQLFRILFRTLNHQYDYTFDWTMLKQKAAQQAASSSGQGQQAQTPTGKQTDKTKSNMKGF
T1 sequence (Q96SW2 whole entry): as the sequence (Q96SW2 whole entry) above
T1 sequence (Q16531 2-1140 partner limits assumed): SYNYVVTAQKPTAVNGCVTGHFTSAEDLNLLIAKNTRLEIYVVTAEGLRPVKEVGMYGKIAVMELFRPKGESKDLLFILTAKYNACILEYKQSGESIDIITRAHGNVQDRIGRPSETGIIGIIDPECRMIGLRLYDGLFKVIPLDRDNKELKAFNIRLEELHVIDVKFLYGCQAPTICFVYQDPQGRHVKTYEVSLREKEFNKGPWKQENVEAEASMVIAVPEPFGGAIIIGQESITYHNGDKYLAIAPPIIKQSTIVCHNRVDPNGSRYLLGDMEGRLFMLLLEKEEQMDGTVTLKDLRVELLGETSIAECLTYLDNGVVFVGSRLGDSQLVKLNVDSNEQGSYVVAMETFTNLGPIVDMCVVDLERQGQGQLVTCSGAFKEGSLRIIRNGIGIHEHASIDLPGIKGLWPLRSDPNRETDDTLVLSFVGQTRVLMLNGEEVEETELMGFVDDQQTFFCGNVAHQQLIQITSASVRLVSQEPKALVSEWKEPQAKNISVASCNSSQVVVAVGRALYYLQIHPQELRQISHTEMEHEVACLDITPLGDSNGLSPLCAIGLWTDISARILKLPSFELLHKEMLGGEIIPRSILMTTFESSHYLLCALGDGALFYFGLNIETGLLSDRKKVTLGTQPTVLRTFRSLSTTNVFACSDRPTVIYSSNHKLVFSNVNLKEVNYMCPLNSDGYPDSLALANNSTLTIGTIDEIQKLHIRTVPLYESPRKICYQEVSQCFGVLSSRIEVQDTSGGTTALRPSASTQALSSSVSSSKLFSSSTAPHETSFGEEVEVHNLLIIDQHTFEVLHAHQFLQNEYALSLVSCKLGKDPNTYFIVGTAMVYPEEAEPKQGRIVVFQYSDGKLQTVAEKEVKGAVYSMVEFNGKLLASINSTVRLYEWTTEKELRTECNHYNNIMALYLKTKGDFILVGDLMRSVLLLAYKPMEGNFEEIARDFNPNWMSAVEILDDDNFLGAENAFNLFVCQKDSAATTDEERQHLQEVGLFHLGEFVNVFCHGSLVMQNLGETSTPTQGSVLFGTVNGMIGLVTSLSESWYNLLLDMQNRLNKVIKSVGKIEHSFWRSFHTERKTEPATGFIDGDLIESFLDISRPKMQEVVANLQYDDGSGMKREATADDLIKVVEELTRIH

Row | DC50 (CK1α) | IC50 (CRBN/DDB1) | GI50 (SKCO1) | Compound | GI50 (CW2) | GI50 (GP2D) | GI50 (LS180) | GI50 (LS174T)
1 | < 0.1 µM | 100 to 1000 nM | < 100 nM | O=C1CCC(N2Cc3cc(NC(=O)c4cn(-c5ccccc5)cn4)ccc3C2=O)C(=O)N1 (centres unmarked) [Compound 109, N-(2-(2,6-dioxopiperidin-3-yl)-1-oxoisoindolin-5-yl)-1-phenyl-1H-imidazole-4-carboxamide] | < 100 nM | < 100 nM | 100 to 1000 nM | < 100 nM
2 | < 0.1 µM | 100 to 1000 nM | – | O=C1CCC(N2Cc3cc(NC(=O)c4cccc(C(F)(F)F)c4)ccc3C2=O)C(=O)N1 (centres unmarked) [Compound 125, N-(2-(2,6-dioxopiperidin-3-yl)-1-oxoisoindolin-5-yl)-3-(trifluoromethyl)benzamide] | – | – | – | –
3 | < 0.1 µM | 100 to 1000 nM | – | O=C1CCC(N2Cc3cc(NC(=O)c4ccc(Cl)cc4F)ccc3C2=O)C(=O)N1 (centres unmarked) [Compound 131, 4-chloro-N-(2-(2,6-dioxopiperidin-3-yl)-1-oxoisoindolin-5-yl)-2-fluorobenzamide] | – | – | – | –
4 | > 1 µM | 100 to 1000 nM | – | CCc1cc2c(cc1NC(=O)c1ccc(Cl)cc1)CN(C1CCC(=O)NC1=O)C2=O (centres unmarked) [Compound 111, 4-chloro-N-(2-(2,6-dioxopiperidin-3-yl)-6-ethyl-1-oxoisoindolin-5-yl)benzamide] | – | – | – | –
5 | 0.1 to 1 µM | 100 to 1000 nM | – | N#Cc1cccc(C(=O)Nc2ccc3c(c2)CN(C2CCC(=O)NC2=O)C3=O)c1 (centres unmarked) [Compound 136, 3-cyano-N-(2-(2,6-dioxopiperidin-3-yl)-1-oxoisoindolin-5-yl) benzamide] | – | – | – | –
6 | 0.1 to 1 µM | 100 to 1000 nM | – | O=C1CCC(N2Cc3cc(NC(=O)c4ncc[nH]4)ccc3C2=O)C(=O)N1 (centres unmarked) [Compound 107, N-(2-(2,6-dioxopiperidin-3-yl)-1-oxoisoindolin-5-yl)-1H-imidazole-2-carboxamide] | – | – | – | –
7 | < 0.1 µM | 100 to 1000 nM | – | Cc1c(C(=O)Nc2ccc3c(c2)CN(C2CCC(=O)NC2=O)C3=O)ncn1-c1ccccc1 (centres unmarked) [Compound 158, N-(2-(2,6-dioxopiperidin-3-yl)-1-oxoisoindolin-5-yl)-5-methyl-1-phenyl-1H-imidazole-4-carboxamide] | – | – | – | –
8 | > 1 µM | 100 to 1000 nM | – | COc1cc2c(cc1NC(=O)c1ccc(Cl)cc1)CN(C1CCC(=O)NC1=O)C2=O (centres unmarked) [Compound 110, 4-chloro-N-(2-(2,6-dioxopiperidin-3-yl)-6-methoxy-1-oxoisoindolin-5-yl)benzamide] | – | – | – | –
9 | 0.1 to 1 µM | 100 to 1000 nM | – | CC(C)Cc1ccccc1C(=O)Nc1ccc2c(c1)CN(C1CCC(=O)NC1=O)C2=O (centres unmarked) [Compound 134, N-(2-(2,6-dioxopiperidin-3-yl)-1-oxoisoindolin-5-yl)-2-isobutylbenzamide] | – | – | – | –
